Measured values from US8680111B2 (Pfizer Inc., priority 2012, dated 2014).

How the values were obtained:
[1] = molecular target: T1, human recombinant L1196M ALK kinase domain (amino acids 1093-1411) (Homo sapiens, UniProt Q9UM73, L1196M); assay: L1196M mutant ALK enzyme assay (microfluidic mobility shift); type: biochemical; conditions: ATP 60 μM, 0.5 nM enzyme, competitive inhibition fit; read-out: L1196M ALK enzyme assay (Ki)
T1 construct: ALK kinase domain (amino acids 1093-1411); made in house

[2] = molecular target: T2, human recombinant wild-type ALK kinase domain (amino acids 1093-1411) (Homo sapiens, UniProt Q9UM73); assay: Wild-type ALK enzyme assay (microfluidic mobility shift); type: biochemical; conditions: ATP 60 μM, competitive inhibition fit, read-out: WT ALK enzyme assay (Ki)
T2 construct: ALK kinase domain (amino acids 1093-1411); made in house
Method: The reactions were incubated for 1 h at room temperature, stopped by the addition of 0.1 M EDTA, pH 8, and the extent of reactions (˜15-20% conversion with no inhibitor) was determined after electrophoretic separation of the fluorescently labeled peptide substrate and phosphorylated product on an LabChip EZ Reader II (Caliper Life Sciences, Hopkinton, Mass.).

Ki [1] | Ki [2] | Molecule
> 3000 nM | > 3000 nM | CC1Oc2cc(cnc2N)-c2c(C(C)(C)C)nn(C)c2CN(C)C(=O)c2ncccc21 (single isomer, unassigned) [Example 69, 7-amino-3-tert-butyl-1,10,16-trimethyl-16,17-dihydro-1H-8,4-(metheno)pyrazolo[4,3-g]pyrido[2,3-l][1,4,10]oxadiazacyclotetradecin-15(10H)-one]
> 3000 nM | > 3000 nM | CC1c2nn(C)c(C#N)c2-c2cnc(N)c(n2)OCc2cc(F)ccc2C(=O)N1C (single isomer, unassigned) [Example 80, 7-amino-12-fluoro-2,16,17-trimethyl-15-oxo-10,15,16,17-tetrahydro-2H-8,4-(azeno)pyrazolo[4,3-h][2,5,11]benzoxadiazacyclotetradecine-3-carbonitrile]
90.2 nM | 29.3 nM | CN1Cc2nn(C)c(C#N)c2-c2cnc(N)c(c2)OC(CF)c2cc(F)ccc2C1=O (single isomer, unassigned) [Example 84, 7-amino-12-fluoro-10-(fluoromethyl)-2,16-dimethyl-15-oxo-10,15,16,17-tetrahydro-2H-8,4-(metheno)pyrazolo[4,3-h][2,5,11]benzoxadiazacyclotetradecine-3-carbonitrile]
51 nM | 270 nM | COc1nn(C)c2c1-c1cnc(N)c(c1)OC(CF)c1cc(F)ccc1C(=O)N(C)C2 (single isomer, unassigned) [Example 87, 7-amino-12-fluoro-10-(fluoromethyl)-3-methoxy-1,16-dimethyl-16,17-dihydro-1H-8,4-(metheno)pyrazolo[4,3-h][2,5,11]benzoxadiazacyclotetradecin-15(10H)-one]
> 3000 nM | > 3000 nM | CC1Oc2nc(cnc2N)-c2c(nn(C)c2C#N)COCc2ccc(F)cc21 (single isomer, unassigned) [Example 106, 7-amino-12-fluoro-2,10-dimethyl-2,10,15,17-tetrahydro-8,4-(azeno)pyrazolo[4,3-h][2,11,5]benzodioxazacyclotetradecine-3-carbonitrile]
> 3000 nM | > 3000 nM | CC1Oc2cc(cnc2N)-c2c(cnn2C)CCCCCOc2ccc(F)cc21 (single isomer, unassigned) [Example 130, 12-fluoro-1,14-dimethyl-1,4,5,6,7,8-hexahydro-14H-16,20-(metheno)-pyrazolo-[4,3-g][1,14,11]benzodioxazacycloheptadecin-17-amine]
794 nM | 78.3 nM | CC1Oc2cc(cnc2N)-c2c(cnn2C)CCCCCOc2ccc(F)cc21 (single isomer, unassigned) [Example 131, 12-fluoro-1,14-dimethyl-1,4,5,6,7,8-hexahydro-14H-16,20-(metheno)-pyrazolo-[4,3-g][1,14,11]benzodioxazacycloheptadecin-17-amine]

More lines, now with the values behind:

Molecule | Ki [1] | Ki [2]
7-amino-12-fluoro-3-methoxy-1,16,17-trimethyl-16,17-dihydro-1H-8,4-(azeno)pyrazolo[4,3-h][2,5,11]benzoxadiazacyclotetradecin-15(10H)-one [Example 126] | 1070 nM | 540 nM
7-amino-12-fluoro-3-methoxy-1,16,17-trimethyl-16,17-dihydro-1H-8,4-(azeno)pyrazolo[4,3-h][2,5,11]benzoxadiazacyclotetradecin-15(10H)-one [Example 128] | 386 nM | 138 nM
CCN1Cc2c(c(C)nn2C)-c2cnc(N)c(c2)OC(C)c2cc(F)ccc2C1=O (single isomer, unassigned) [Example 10, 7-amino-16-ethyl-12-fluoro-1,3,10-trimethyl-16,17-dihydro-1H-8,4-(metheno)pyrazolo[4,3-h][2,5,11]benzoxadiazacyclotetradecin-15(10H)-one] | 34 nM | 13 nM
CC1Oc2cc(cnc2N)-c2c(nn(C)c2C2CC2)CN(C)C(=O)c2ccc(F)cc21 (single isomer, unassigned) [Example 15, 7-amino-3-cyclopropyl-12-fluoro-2,10,16-trimethyl-16,17-dihydro-2H-8,4-(metheno)pyrazolo[4,3-h][2,5,11]benzoxadiazacyclotetradecin-15(10H)-one] | 2.5 nM | < 0.2 nM
CC1Oc2cc(cnc2N)-c2c(nn(C)c2C2CC2)CN(C)C(=O)c2ccc(F)cc21 (single isomer, unassigned) [Example 16, 7-amino-3-cyclopropyl-12-fluoro-2,10,16-trimethyl-16,17-dihydro-2H-8,4-(metheno)pyrazolo[4,3-h][2,5,11]benzoxadiazacyclotetradecin-15(10H)-one] | > 2270 nM | 213 nM
COc1c2c(nn1C)CN(C)C(=O)c1ccc(F)cc1C(C)Oc1cc-2cnc1N (single isomer, unassigned) [Example 20, 7-amino-12-fluoro-3-methoxy-2,10,16-trimethyl-16,17-dihydro-2H-8,4-(metheno)pyrazolo[4,3-h][2,5,11]benzoxadiazacyclotetradecin-15(10H)-one] | 450 nM | 34 nM
CCC1Oc2cc(cnc2N)-c2c(OC)nn(C)c2CN(C)C(=O)c2ccc(F)cc21 (single isomer, unassigned) [Example 24, 7-amino-10-ethyl-12-fluoro-3-methoxy-1,16-dimethyl-16,17-dihydro-1H-8,4-(metheno)pyrazolo[4,3-h][2,5,11]benzoxadiazacyclotetradecin-15(10H)-one] | 14 nM | 4.6 nM
CC1Oc2nc(cnc2N)-c2c(nn(C)c2C#N)CN(C)C(=O)c2ccc(F)cc21 (single isomer, unassigned) [Example 33, 7-amino-12-fluoro-2,10,16-trimethyl-15-oxo-10,15,16,17-tetrahydro-2H-8,4-(azeno)pyrazolo[4,3-h][2,5,11]benzoxadiazacyclotetradecine-3-carbonitrile] | > 2680 nM | 1010 nM
CC1Oc2cc(cnc2N)-c2c(nn(C)c2C#N)CN(C)C(=O)c2c(F)cccc21 (single isomer, unassigned) [Example 53, 7-amino-14-fluoro-2,10,16-trimethyl-15-oxo-10,15,16,17-tetrahydro-2H-8,4-(metheno)pyrazolo[4,3-h][2,5,11]benzoxadiazacyclotetradecine-3-carbonitrile] | 164 nM | 25.8 nM
COc1nn(C)c2c1-c1cnc(N)c(c1)OC(C)c1cccnc1C(=O)N(C)C2 (single isomer, unassigned) [Example 66, 7-amino-3-methoxy-1,10,16-trimethyl-16,17-dihydro-1H-8,4-(metheno)-pyrazolo[4,3-g]pyrido[2,3-l][1,4,10]oxadiazacyclotetradecin-15(10H)-one] | 122 nM | 19.3 nM
CC1Oc2cc(cnc2N)-c2c(C(C)(C)C)nn(C)c2CN(C)C(=O)c2ncccc21 (single isomer, unassigned) [Example 68, 7-amino-3-tert-butyl-1,10,16-trimethyl-16,17-dihydro-1H-8,4-(metheno)pyrazolo[4,3-g]pyrido[2,3-l][1,4,10]oxadiazacyclotetradecin-15(10H)-one] | > 1500 nM | 207 nM
Cn1ncc2c1-c1cnc(N)c(c1)OCc1cc(F)ccc1OCCCCC2 [Example 42, 12-fluoro-1-methyl-1,4,5,6,7,8-hexahydro-14H-16,20-(metheno) pyrazolo[4,3-g][1,14,11]benzodioxazacycloheptadecin-17-amine] | 2.89 nM | 500 nM
